Data published in patent publication US20250283019A1, “NEURO-INTEGRATED BIOREACTOR SYSTEM FOR STUDYING JOINT PAIN AND TREATMENT THEREOF” (University of Pittsburgh - Of the Commonwealth System of …, priority 2022, published 2025).

Assays:
[1] = test system: DRG neurons; assay: Spiking of DRG neurons on MEAs in the central chamber of the neu-microJoint bioreactor in response to KCl; assay type: cell-based; details: 30 mM KCl; DRG neurons cultured on MEAs for 4 days; screened with 10, 30 and 50 mM; little to no spontaneous activity at baseline
Protocol: Acutely dissociated DRG neurons are plated in the neural chamber and cultured in 2D at a density of […] to enable recording of neural activity, for example with microelectrodes or MEAs embedded in the floor of the chamber.
To enable recording of neural activity, sensory neurons are plated on a high-density microelectrode array (MEA) embedded in the floor of the neuron bioreactor chamber. Additionally, over the course of 28 days, the neurites reach the synovium, bone, and adipose chambers. In addition, they are functional, as assessed by the ability to maintain physiological cytosolic Ca^2+ concentrations (˜100 nM), a healthy resting membrane potential <−50 mV, and overshooting action potentials in response to physiological stimuli.
DRG neurons cultured on MEAs for 4 days in the central chamber of the neu-microJoint bioreactor were screened with increasing concentrations of KCl (10, 30, and 50 mM) to detect spiking.

[2] = test system: sensory neurons; assay: Sensitization of sensory neurons in fura-2 Ca2+ imaging and whole cell patch recordings; assay type: cell-based
From the text: Macrophages can be added to any of the tissue scaffolds in the bioreactor to assess their contribution to joint pain modeled by the neu-microJoint bioreactor. M1 macrophages are a classically activated pro-inflammatory cell type that express pro-inflammatory cytokines, chemokines and many other substances. M2 macrophages are alternatively activated and have an anti-inflammatory pro-tissue regenerative phenotype.

[3] = test system: cartilage (in the upper part of the bone/cartilage chamber); assay: IL1β OA model in the neu-microJoint bioreactor: mRNA expression in cartilage; assay type: cell-based, human; details: IL1β applied to the synovium flow only; cartilage not directly exposed; 10 ng/mL for 1 week
From the text: For the tissue scaffolds containing synovial cells, adipose cells, chondrocytes, or osteocytes, human mesenchymal stem cells (MSCs, >98% positive to CD73, 90, 105 and >99% negative to CD31, 34, 45, capable of colony formation and trilineage differentiation) or human iPSCs-derived MSCs (iMPCs) are encapsulated in photo-crosslinked gelatin scaffolds, and then subjected to tissue specific media to generate individual synovium, adipose, osteochondral tissues, as well as an additional individual macrophage component. After maturation, these tissue constructs are assembled with the chamber body inserts as described herein and inserted into the outer chambers of the neu-microJoint bioreactor, the fluid conduits are tapped and connected to suitable tubing, and tissue culture medium is pumped through the device to perfuse the tissue scaffolds. […]
Since IL1β that is used to generate the OA model is only applied to the flow of synovium, it indirectly stimulates the other tissues. […] As this may be part of the OA process, retrograde tracers may be used to distinguish activity in neurons innervating the synovium chamber from those innervating other chambers, and corresponding neural activity is monitored.

Compound | sensitization of sensory neurons [2] | further results
[Cl-].[K+] [KCl] | – | spiking activity of DRG neurons [1]: activity was detected
CCCCC[C@H](O)/C=C/[C@H]1[C@H](O)CC(=O)[C@@H]1C/C=C\CCCC(=O)O [PGE2, prostaglandin E2] | sensitize sensory neurons | –
IL1β: cytokine used to trigger OA conditions in the outer chambers | – | ADAMTS 4 mRNA expression in cartilage [3]: significant increases; MMP13 mRNA expression in cartilage [3]: significant increases
IL-6: factor generated by M1 macrophages; cytokine | sensitize sensory neurons | –
tumor necrosis factor (TNF)-α | sensitize sensory neurons | –
